# Reference: article PMC12226733, “Evolution of iGluR ligand specificity, polyamine regulation, and ion selectivity inferred from a placozoan epsilon receptor” (Communications Biology, 2025)
# Residue numbers refer to the chain shown, from its start. Where “and” joins values, the source holds several entries; their conditions need not be identical. Identical values can stand only once. Like-named read-outs stand apart in the source and are kept apart here.
# Columns and labels:
# [1] = biological target: T1, T. adhaerens GluE1αA receptor (wildtype) (Trichoplax adhaerens, UniProt B3SAW0); conditions: 2 s pulse of 3 mM glycine, wash of increasing duration, 2 s test pulse; single exponential; n = 10
# Source text: (§1) The cDNA of the T. adhaerens GluE1αA receptor was cloned into the mammalian expression vector pIRES2-EGFP, using a 5’ nested primer that inserted a mammalian consensus Kozak sequence of […] (Supplementary Table 5). Several mutants/variants of this receptor where also prepared via site directed mutagenesis using standard procedures and primers listed in Supplementary Table 5. For electrophysiological comparisons, we commissioned GenScript (USA) to synthesize the cDNA of the human GluA2 […] receptor (NCBI accession number NP_001077088.2), which was cloned into the pIRES2-EGFP vector with a Kozak sequence flanking the start codon and restriction enzymes SalI and BamHI at the 5’ and 3’ ends of the cDNA, respectively. Receptor cDNAs in the various pIRES2 constructs were transfected into Chinese Hamster Ovary-K1 (CHO-K1; Sigma) cells cultured in Dulbecco’s Modified Eagle Medium Nutrient Mixture F-12 (DMEM/F12) supplemented with 10% Fetal Bovine Serum (FBS) and 1% penicillin-streptomycin at 37°C. Transfections were done with 2 μg of plasmid vector using the transfecting reagent PolyJet^TM (SignaGen Laboratories, USA) according to the manufacturer’s instructions and plated onto glass coverslips in 35 mm dishes the next day. Transfected cells were incubated at 28°C for 2 to 4 days, then coverslips were transferred to a new 60 mm dish with 5 mL of external recording solution. […] Agonists and pharmacological compounds used in this study were dissolved in corresponding external solutions. […] Patch pipettes were pulled using a P-1000 micropipette puller (Sutter, USA), from thick-walled borosilicate tubing (1.5 and 0.86 outer and inner diameter, respectively), to a resistance of between 1 and 6 megaohms.
# [2] = tested on: GluE1αA m3 variant (S653G, I655T, F732Y); assay type: cell-based, Trichoplax adhaerens; conditions: m3
# Source text: (§2) As noted, a model has been put forward that defines iGluR ligand specificity based on a set of key amino acids in the LBD of iGluRs[11]. […] To the best of our knowledge, whether these few positions are indeed solely responsible for ligand specificity, and moreover, can be altered to switch specificity for natural ligands, has not been experimentally tested. […] We also created a triple mutant, with an additional phenylalanine to tyrosine mutation at position 732 (F732Y; m3 variant), to make the T. adhaerens epsilon receptor resemble GluN2A and GluA2 receptors from human, reasoning that this mutation might enhance glutamate sensitivity. We also generated a single F732Y mutant (m1 variant), to assess the contribution of this amino acid to ligand specificity in isolation.
# as §1
# [3] = tested on: GluE1αA m2 variant (S653G, I655T); assay type: cell-based, Trichoplax adhaerens
# Source text: as §2, §1
# [4] = tested on: GluE1αA m1 variant (F732Y); assay type: cell-based, Trichoplax adhaerens
# Source text: as §2, §1
# [5] = biological target: T1, T. adhaerens GluE1αA receptor (wildtype); experiment: whole-cell patch clamp, agonist-evoked currents in CHO-K1 cells; assay type: cell-based
# [6] = biological target: T2, GluE1αA wildtype receptor (Trichoplax adhaerens, UniProt B3SAW0); conditions: wild type, 10 mM glycine
# T2 sequence (B3SAW0 1-341): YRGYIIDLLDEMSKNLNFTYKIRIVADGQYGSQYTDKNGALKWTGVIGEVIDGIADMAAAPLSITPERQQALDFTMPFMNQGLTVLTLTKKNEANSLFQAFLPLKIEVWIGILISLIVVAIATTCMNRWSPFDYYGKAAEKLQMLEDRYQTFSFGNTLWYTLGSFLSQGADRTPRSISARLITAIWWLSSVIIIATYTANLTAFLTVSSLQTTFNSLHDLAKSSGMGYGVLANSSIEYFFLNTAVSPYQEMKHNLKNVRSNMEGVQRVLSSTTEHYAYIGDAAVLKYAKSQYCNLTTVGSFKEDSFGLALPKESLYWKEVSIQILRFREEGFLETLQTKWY
# [7] = biological target: T3, GluE1αA m3 variant (Trichoplax adhaerens, UniProt B3SAW0, F306Y/I236T/S234G); conditions: 10 mM glutamate
# T3 sequence (B3SAW0 1-341 S234G/I236T/F306Y): T2 sequence (B3SAW0 1-341) with S234G, I236T, F306Y
# [8] = tested on: GluE1αA S642Q plus D646A; assay type: cell-based, Trichoplax adhaerens
# [9] = tested on: GluE1αA S642Q plus D646A; assay type: cell-based, Trichoplax adhaerens; remark: listed apart in the source
# [10] = biological target: T4, GluE1αA S642Q (Trichoplax adhaerens, UniProt B3SAW0, S167Q); assay type: cell-based
# T4 sequence (B3SAW0 1-341 S167Q): T2 sequence (B3SAW0 1-341) with S167Q
# [11] = tested on: GluE1αA wildtype; assay type: cell-based, Trichoplax adhaerens
# [12] = tested on: GluE1αA D646A; assay type: cell-based, Trichoplax adhaerens
# [13] = tested on: GluE1αA D646A; assay type: cell-based, Trichoplax adhaerens; remark: listed apart in the source
# [14] = tested on: GluE1αA S642R; assay type: cell-based, Trichoplax adhaerens
# [15] = tested on: GluE1αA wildtype; assay type: cell-based, Trichoplax adhaerens; remark: listed apart in the source
# [16] = biological target: T4, GluE1αA S642Q; assay type: cell-based; remark: listed apart in the source
# [17] = biological target: T5, GluE1αA S642N (Trichoplax adhaerens, UniProt B3SAW0, S167N); assay type: cell-based
# T5 sequence (B3SAW0 1-341 S167N): T2 sequence (B3SAW0 1-341) with S167N
# [18] = biological target: T5, GluE1αA S642N; assay type: cell-based; remark: listed apart in the source
# [19] = tested on: GluE1αA S642R; assay type: cell-based, Trichoplax adhaerens; remark: listed apart in the source
# [20] = m1, ligand 10 mM, normalized to glycine
structure (smiles),measurement,setting,value
NCC(=O)O [glycine],time constant of recovery from desensitization (τ),[1],184 ± 45 ms
same,"normalized peak inward current, Avg",[2]; agonist 1 mM,0.0155
same,"normalized peak inward current, Avg","[2]; ligand 10 mM, normalized to glutamate",0.0446
same,"normalized peak inward current, Avg",[3],0.37 and 0.38
same,"normalized peak inward current, single recording",[3],0.36 and 0.37 and 0.44 and 0.40 and 0.28 and 0.49 and 0.42 and 0.34
same,EC50,"[4]; m1 (F732Y) variant, dose response of normalized current",300 ± 40 µM
same,"normalized current (dose response), Avg","[4]; m1, glycine 0.03 mM",0.00429
same,"normalized current (dose response), single recording","[4]; m1, glycine 0.03 mM",0.00434 and 0.00425
same,"normalized current (dose response), Avg","[4]; m1, glycine 0.1 mM",0.0331
same,"normalized current (dose response), Avg","[4]; m1, glycine 0.3 mM",0.50
same,"normalized current (dose response), single recording","[4]; m1, glycine 0.3 mM",0.36 and 0.35 and 0.56 and 0.51 and 0.57 and 0.65 and 0.62
same,"normalized current (dose response), Avg","[4]; m1, glycine 1 mM",0.98
same,"normalized current (dose response), single recording","[4]; m1, glycine 1 mM",0.97 and 1.00 and 0.96
same,"normalized current (dose response), Avg","[4]; m1, glycine 3 mM",0.99
same,"normalized current (dose response), single recording","[4]; m1, glycine 3 mM",1.00 and 0.99 and 0.96
same,"normalized current (dose response), Avg","[4]; m1, glycine […]",0.85
same,"normalized peak inward current, Avg",[4]; [20],1.00
same,"normalized peak inward current, single recording",[4]; [20],0.93 and 1.04 and 1.03 and 0.96
same,activation of ligand-gated current,[5],activated
same,"normalized peak inward current, Avg",[5],1.02 and 1.00
same,sensitivity to agonist,[5],robust currents
"N#Cc1cc2[nH]c(=O)c(=O)[nH]c2cc1[N+](=O)[O-] [CNQX, 6-cyano-7-nitroquinoxaline-2,3-dione]","current normalized to peak amplitude in the absence of CNQX, Avg",[6]; CNQX 1 µM,0.99
same,"current normalized to peak amplitude in the absence of CNQX, single recording",[6]; CNQX 1 µM,1.07 and 0.91 and 0.98 and 1.00 and 1.01 and 0.97 and 0.94
same,"current normalized to peak amplitude in the absence of CNQX, Avg",[6]; CNQX 10 µM,0.86
same,"current normalized to peak amplitude in the absence of CNQX, single recording",[6]; CNQX 10 µM,0.80 and 0.79 and 0.93 and 0.89 and 0.85 and 0.87
same,"current normalized to peak amplitude in the absence of CNQX, Avg",[6]; CNQX 100 µM,0.29
same,"current normalized to peak amplitude in the absence of CNQX, Avg",[7]; CNQX 1 µM,1.22
same,"current normalized to peak amplitude in the absence of CNQX, single recording",[7]; CNQX 1 µM,1.09 and 1.17 and 1.15 and 0.98 and 1.22 and 1.35 and 1.57
same,"current normalized to peak amplitude in the absence of CNQX, Avg",[7]; CNQX 10 µM,0.42
same,"current normalized to peak amplitude in the absence of CNQX, single recording",[7]; CNQX 10 µM,0.44 and 0.38 and 0.42 and 0.52 and 0.35
same,"current normalized to peak amplitude in the absence of CNQX, Avg",[7]; CNQX 100 µM,0.08
[Cs+] [Cs],pCs/pNa,[8],1.15 and 1.09 and 1.10 and 1.24 and 1.08 and 1.02
same,"Cs vs Ca, Avg (Figure S8e, normalized G-V)",[9],1.00 and 1.03 and 0.98 and 1.02 and 1.15 and 1.27 and 1.40 and 1.41
same,pCs/pCa,[9],7.48 and 6.98 and 7.28 and 7.47 and 4.49 and 4.01 and 6.97 and 6.40
same,pCs/pNa,[10],0.77 and 1.08 and 1.06 and 1.15 and 1.01 and 1.25
same,"Avg of recordings (Figure S7c, G-V, normalized)",[11],0.58 and 0.69 and 0.78 and 0.80 and 1.00 and 0.93 and 0.77 and 0.60
same,pCs/pNa,[11],0.95 and 0.96 and 0.99 and 0.93 and 0.92
same,"Cs vs Ca, Avg (Figure S8e, normalized G-V)",[12],1.00 and 0.97 and 0.90 and 0.81 and 0.79 and 0.75 and 0.88
same,pCs/pCa,[12],1.12 and 1.10 and 0.98 and 1.02 and 1.05 and 0.97
same,pCs/pNa,[13],1.01 and 0.96 and 0.98 and 0.97 and 1.08
same,pCs/pCa,[14],2.85 and 2.43 and 1.93 and 2.69 and 2.80 and 3.78
same,pCs/pCa,[15],1.08 and 0.98 and 1.16 and 1.36 and 1.19 and 1.14
same,pCs/pCa,[16],8.99 and 7.25 and 7.15 and 8.09 and 7.84 and 7.74 and 7.89
same,pCs/pCa,[17],5.26 and 5.24 and 5.82 and 3.13 and 4.33 and 4.04
same,pCs/pNa,[18],1.10 and 1.06 and 1.08 and 0.97 and 0.98 and 0.82
same,pCs/pNa,[19],0.92 and 0.78 and 0.83 and 0.84 and 0.81 and 0.79 and 0.82
